Source: patent US20150025120A1, “PYRAZOLE-ALCOHOL COMPOUNDS AND PHARMACEUTICAL USE THEREOF” (JAPAN TOBACCO INC., priority 2013, published 2015)

How the values were obtained:
[1] = Metabolic stability test in liver microsome (rat); assay type: in vitro ADME
human PDHK2 (hPDHK2) = molecular target: T1, human PDHK2 (hPDHK2) (Homo sapiens, UniProt Q15119); assay: Inhibitory action of PDHK2 activity in vitro (residual PDH activity after kinase reaction); assay type: biochemical
T1 construct: made in house; host or cells: Escherichia coli BL21(DE3), pET17b
Procedure: The inhibitory action of PDHK activity was assessed indirectly by measuring the residual PDH activity after kinase reaction in the presence of a test compound.
In the case of human PDHK2 (hPDHK2, Genbank Accession No. BC040478.1), modified hPDHK2 cDNA wherein FLAG-Tag sequence was added to the N terminus of hPDHK2 cDNA clone (pReceiver-M01/PDK2-GeneCopoeia) was prepared by PCR and cloned into a vector (pET17b-Novagen). The recombinant construct was transformed into Escherichia coli (DH5α-TOYOBO). The recombinant clones were identified, and plasmid DNA was isolated and subjected to the DNA sequence analysis. One clone which had the expected nucleic acid sequence was selected for expression work.
For expression of hPDHK2 activity, Escherichia coli strain BL21(DE3) cells (Novagen) were transformed with the pET17b vector containing modified hPDHK2 cDNA. The Escherichia coli were grown to an optical density 0.6 ([…]) at 30° C. Protein expression was induced by the addition of 500 μmol/L isopropyl-β-thiogalactopyranoside. The Escherichia coli were cultured at 30° C. for 5 hr and harvested by centrifugation. Resuspension of the Escherichia coli paste was disrupted by a microfluidizer. FLAG-Tagged protein was purified using FLAG affinity gel. The gel was washed with 20 mmol/L HEPES-NaOH, 500 mmol/L sodium chloride, 1% ethylene glycol, and 0.1% Pluronic F-68 (pH 8.0), and the binding protein was eluted with 20 mmol/L HEPES-NaOH, 100 μg/mL FLAG peptide, 500 mmol/L sodium chloride, 1% ethylene glycol, and 0.1% Pluronic F-68 (pH 8.0). The eluted fractions containing FLAG-Tagged protein were pooled, dialyzed against 20 mmol/L HEPES-NaOH, 150 mmol/L sodium chloride, 0.5 mmol/L EDTA, 1% ethylene glycol, and 0.1% Pluronic F-68 (pH 8.0), and preserved at −80° C.
0.05 U/mL PDH and 0.8 μg/mL hPDHK2 were mixed in a buffer (50 mmol/L 3-morpholinopropanesulfonic acid (pH 7.0), 20 mmol/L dipotassium hydrogen phosphate, 60 mmol/L potassium chloride, 2 mmol/L magnesium chloride, 0.4 mmol/L EDTA, and 0.2% Pluronic F-68, 2 mmol/L dithiothreitol), and the mixture was incubated at 4° C. overnight to obtain a PDH/hPDHK2 complex. The test compounds were diluted with DMSO. […] DMSO (1.5 μL) was added to control wells instead of the test compound. […] The mixture was incubated at room temperature for 90 min, and the residual PDH activity was measured. The absorbance at 340 nm before and after PDH reaction was measured using a microplate reader to detect NADH produced by the PDH reaction. The hPDHK2 inhibition rate (%) of the test compound was calculated from the formula [{(PDH activity of test compound−PDH activity of control)/PDH activity of blank−PDH activity of control)}×100].

[2] = Metabolic stability test in liver microsome (human); assay type: in vitro ADME; details: 5 μM test compound
Procedure: Human liver microsome (manufactured by Xenotech, H0620, final concentration (after dilution), 0.2 mg protein/mL) was suspended in 100 mM potassium phosphate buffer (pH 7.4, containing β-nicotinamide adenine dinucleotide phosphate: 1.3 mM, D-glucose-6-phosphate: 3.3 mM, magnesium chloride: 3.3 mM, glucose-6-phosphate dehydrogenase: 0.45 U/mL), and further mixed with a test compound dissolved in MeCN/DMSO (95/5) (final concentration 5 μM). The mixture was incubated at 37° C. for 10 min and 60 min, acetonitrile containing formic acid (final concentration 0.1%) was added, and the mixture was centrifuged. The test compound (unmodified) in the supernatant was measured by high performance liquid chromatography/mass spectrometry (LC/MS) (manufactured by Waters, LC: Acquity UPLC, MS:SQ Detector or TQ Detector). The residual ratio (%) was calculated from the obtained measurement value.

tissue PDH activity = assay: Ex vivo PDH activation assay (liver and epididymal adipose tissue after oral administration); assay type: in vivo, Sprague-Dawley rats; details: 3 mg/kg, rat, mean ± standard deviation
Procedure: The action of test compound on tissue PDH activity was evaluated. NADH production was detected via p-iodonitrotetrazolium violet (INT)-coupled system to measure PDH activity.
Normal male Sprague-Dawley rats were randomly allocated to the vehicle group and the test compound groups. The vehicle (0.5% aqueous methylcellulose solution, 5 mL/kg) or the test compound was orally administered to the rats. At 5 or 20 hr after administration, the rats were anesthetized with an intraperitoneal injection of sodium pentobarbital (60 mg/kg), and liver slices and epididymal adipose tissues were collected.
(§1) To the liver slices were rapidly added 9 volumes of ice-cold homogenization buffer (0.25 mol/L sucrose, 5 mmol/L tris(hydroxymethyl)aminomethane hydrochloride (pH 7.5), 2 mmol/L EDTA), and the mixtures were homogenized using a Polytron homogenizer. The homogenates were centrifuged at 600×g, 4° C. for 10 min to obtain the supernatant. The supernatants (1 mL) were centrifuged at 16,000×g, 4° C. for 10 min to collect the precipitates. The precipitates were washed by resuspension in the homogenization buffer (1 mL) and centrifuged in the same manner. The precipitates were frozen with liquid nitrogen and stored at −80° C. as the liver mitochondrial fraction.
as §1, with “adipose tissues” for “liver slices”, “3” for “9”, “of an” for “of”, “buffer,” for “buffer (0.25 mol/L sucrose, 5 mmol/L tris(hydroxymethyl)aminomethane hydrochloride (pH 7.5), 2 mmol/L EDTA),”, “supernatants” for “supernatants (1 mL)”, “adipose tissue” for “liver”
The mitochondrial fractions were thawed and suspended with the sample buffer (0.25 mol/L sucrose, 20 mmol/L tris(hydroxymethyl)aminomethane hydrochloride (pH 7.5), 50 mmol/L potassium chloride, and 1 mL/L 4-(1,1,3,3-tetramethylbutyl)phenyl-polyethylene glycol (Triton X-100)). Active PDH activity (PDHa activity) and total PDH activity (PDHt activity) were measured to evaluate the PDH activity. For the measurement of the PDHt activity, equal amounts of the mitochondrial suspension and the activation buffer (0.25 mol/L sucrose, 20 mmol/L tris(hydroxymethyl)aminomethane hydrochloride (pH 7.5), 50 mmol/L potassium chloride, 1 mL/L Triton X-100, 4 mmol/L calcium chloride, 40 mmol/L magnesium chloride, 10 mmol/L sodium dichloroacetate) were mixed, and the mixtures were incubated at 37° C. for 10 min. Forty microliters of the mitochondrial suspensions diluted with a sample buffer were added to a 96-well microplate for activity measurement and blank measurement. Then 180 μL of the reaction mixture (0.056 mmol/L potassium phosphate buffer (pH 7.5), 5.6 mmol/L DL-carnitine, 2.8 mmol/L NAD, 0.22 mmol/L thiamin pyrophosphate, 0.11 mmol/L Coenzyme A, 1.1 mL/L Triton X-100, 1.1 mmol/L magnesium chloride, 1.1 g/L bovine serum albumin, 0.67 mmol/L INT, 7.2 μmol/L phenazine methosulfate, 28 mmol/L sodium oxamate) was added to each well, and then 20 μL of 50 mmol/L sodium pyruvate for activity measurement or water for blank measurement were added. The mixtures were incubated at room temperature under shading. The absorbances at 500-750 nm, which were attributable to reduction of INT, the final electron acceptor, were measured using a microplate reader over time and the changes in the absorbance were calculated. The PDH activity was calculated by subtraction of the change in absorbance of the blank well from that of the activity measurement well. The percentage of the PDHa activity to the PDHt activity was calculated and taken as an index of the PDH activation.

Compound: CC(C)(O)CCOc1cc(-c2cnn(CC(C)(C)O)c2)c2c(c1)[C@@](O)(C(F)(F)F)c1ccccc1-2 [compound (3), (9R)-2-(3-hydroxy-3-methylbutoxy)-4-[1-(2-hydroxy-2-methylpropyl)-1H-pyrazol-4-yl]-9-(trifluoromethyl)-9H-fluoren-9-ol]
- stability in liver microsome (residual ratio %) ([1]; 10 min): 98.2%
- stability in liver microsome (residual ratio %) ([1]; 60 min): 99.7%
- IC50 (human PDHK2 (hPDHK2)): 4.6 nM
- stability in liver microsome (residual ratio %) ([2]; 10 min): 96.0%
- stability in liver microsome (residual ratio %) ([2]; 60 min): 85.3%
- PDHa activity (% PDHt activity) (tissue PDH activity; adipose tissue, 5 hr after oral administration): 58 ± 7 % PDHt activity
- PDHa activity (% PDHt activity) (tissue PDH activity; adipose tissue, 20 hr after oral administration): 40 ± 3 % PDHt activity
- PDHa activity (% PDHt activity) (tissue PDH activity; liver, 5 hr after oral administration): 51 ± 13 % PDHt activity
- PDHa activity (% PDHt activity) (tissue PDH activity; liver, 20 hr after oral administration): 31 ± 12 % PDHt activity
